One assay relates to PDE (Peak I). Briefly: Characterisation of PDE (Peak I) from cat heart: substrate kinetics. In kind it is biochemical.
The subject of another assay is PDE (Peak II). As to conditions: in words.
The target of another assay is PDE (Peak III). Briefly: Inhibition of phosphodiesterase PDE (Peak III) from cat heart. As to conditions: read-out: IC50 PDE (Peak III); 1 μM cyclic AMP, 37°, pH 7.5.
For assay [1], the system named is right ventricular strips (force of contraction). Kind of assay: Cardiac stimulant activity in vitro: force of contraction of electrically stimulated guinea pig ventricular strips. Details: species or system Guinea pigs. The conditions noted are these: Cavia porcellus, read-out: EC50 (50% increase in the force of contraction of the ventricular strips); guinea pig right ventricle strips, Krebs Henseleit, 37° C., 1.0 Hz, cumulative concentration response. As to the method:
CARDIAC STIMULANT ACTIVITY--IN VITRO
The compounds of formula (I) and their pharmaceutically acceptable salts are tested for cardiac stimulant activity following a procedure based on that of S. C. Verma and J. H. McNeill (J. Pharm & Exp. Therapeutics, 200, 352-362 (1977)). Guinea pigs (500-700 g) of either sex are sacrificed and the hearts are quickly removed and transferred to a dissecting dish containing oxygenated bathing fluid. While in the bathing medium, the right ventricle is cut into two strips. The strips are each suspended in a 50 ml bath containing Krebs Henseleit solution at 37° C., and the bath is bubbled with 95% oxygen and 5% carbon dioxide. The ventricular strips are electrically stimulated at a frequency of 1.0 Hz, at double the threshold voltage. A resting tension of 1.0 g is applied to the strips and the tension is kept constant by readjustment during an equilibration period of 60 minutes. The bathing fluid is frequently changed during this period. When a steady base line is obtained, a compound under test is added to the bathing fluid and a cumulative concentration response curve is plotted.

As usually defined, the Km is the substrate concentration at which the rate is half of its maximum. As a reminder, the IC50 is the concentration that gives 50% inhibition.

Description for PDE (Peak II): (§1) The enzyme was assayed by incubation at 37° for 4-30 min in 50 mM Tris, 5 mM MgCl2, pH 7.5 with [3-H] cyclic nucleotide (4×10^5 disintegrations min^-1) and [14-C] nucleotide 5' monophosphate (3-10^3 disintegrations min^-1). The assay was stopped by boiling, and the [3-H] […] The reaction mixture was diluted with 0.5 ml 100 mM HEPES (N-2-Hydroxyethylpiperazine-N'-2-ethanesulfonic acid), 100 mM NaCl, pH 8.5, and applied to the column. […] The recovery of product as judged by [14-C] recovery was approximately 80%. All assays were linear with time of incubation and concentration of enzyme over the range used in these experiments.
Description for PDE (Peak III): as §1

For `Nc1nc2c(ncn2[C@@H]2O[C@@H]3COP(=O)(O)O[C@H]3[C@H]2O)c(=O)[nH]1` [cyclic GMP], the affinity result is “high affinity” in the assay on PDE (Peak I) (in words) and “relatively low affinities” in the assay with PDE (Peak II). Besides, the Km with PDE (Peak I) (with 50 μg/ml calmodulin) was determined as 1400 nM. Also, in the assay on PDE (Peak I) (with 50 μg/ml calmodulin), the “Relative Vmax” value came out at 7.2. As to `CC1CC(=O)NN=C1c1ccc(Nc2nc(=O)cc[nH]2)cc1` (centres unmarked) [Example 1, 6-[4-(1,4-Dihydro-4-oxo-2-pyrimidinylamino)phenyl]-5-methyl-4,5-dihydro-3(2H)-pyridazinone], the IC50 on PDE (Peak III) amounted to 690 nM. The EC50 in assay [1] came out at 600 nM.

Consider `Cc1cc(=O)nc(Nc2ccc(C3=NNC(=O)CC3C)cc2)[nH]1` (centres unmarked) [Example 2, 6-[4-(1,4-Dihydro-6-methyl-4-oxo-2-pyrimidinylamino)phenyl]-5-methyl-4,5-dihydro-3(2H)-pyridazinone], for which the 50% inhibitory concentration (IC50) at PDE (Peak III) is 450 nM.

As to `Cc1c[nH]c(Nc2ccc(C3=NNC(=O)CC3C)cc2)nc1=O` (centres unmarked) [Example 3, 6-[4-(1,4-Dihydro-5-methyl-4-oxo-2-pyrimidinylamino)-phenyl]-5-methyl-4,5-dihydro-3(2H)-pyridazinone], on PDE (Peak III), the IC50 came out at 1120 nM. As to `Cc1[nH]c(=O)c(C#N)cc1-c1ccncc1` [Milrinone], on PDE (Peak III), the IC50 was determined as 2200 nM. Consider `CC1CC(=O)NN=C1c1ccc(Nc2nc(=O)c3ccccc3[nH]2)cc1` (centres unmarked) [Example 4, 6-[4-(1,4-Dihydro-4-oxo-2-quinazolinylamino)phenyl]-5-methyl-4,5-dihydro-3(2H)-pyridazinone], for which the IC50 at PDE (Peak III) was 150 nM.

As for `Nc1cc(-c2ccncc2)c[nH]c1=O` [Amrinone], on PDE (Peak III), the IC50 was found to be 51800 nM.

These data come from patent US4962110A, “Pyridazinone derivatives” (Smith Kline & French Laboratories Limited, priority 1989, dated 1990).
